Data set [1] deals with pandemic 2009 H1N1 influenza A virus. As to the kind of experiment: Plaque inhibition assay in MDCK cells. The data set is classed as cell-based, Pandemic influenza A/Taiwan/CMUH/2009 (H1N1). To be noted: 72 h, read-out: Plaque inhibition IC50 values, Pandemic 2009 H1N1.
For data set [2], the system named is seasonal 2007 H1N1 influenza A virus. As to the kind of experiment: microbe, parasite or virus in culture. The settings on record: read-out: Plaque inhibition IC50 values, Seasonal 2007 H1N1. The data set is classed as cell-based.
A short description of another data set: in vitro. The settings on record: dog.
Data set [3] has as its target NA of PR8 H1N1 influenza A virus (Influenza A virus, UniProt P03468). As to the kind of experiment: NA enzymatic activity inhibition, fluorometric MUNANA assay. The data set is classed as biochemical, Influenza A/Puerto Rico/8/34 (H1N1). The text has this:
Pandemic influenza A/Taiwan/CMUH/2009 (H1N1) (pandemic 2009 H1N1 virus), seasonal influenza A/Taiwan//CMUH/2007 (H1N1), 2009 (H1N1), and 2009 (H3N2) (seasonal 2007 H1N1, 2009 H1N1, and 2009 H3N2 influenza A viruses) were isolated in the clinical virology laboratory of China Medical University Hospital, Taiwan. Influenza A/Puerto Rico/8/34 (H1N1) (PR8 H1N1 virus) was kindly provided by Dr. Wei-Li Hsu (Institute of Microbiology and Public Health, National Chung-Hsing University). HA subtype of all influenza A viruses used was confirmed by RT-PCR or real-time RT-PCR with specific primers (see Supplementary Table 1 in the Supplementary Material available online at http://dx.doi.org/10.1155/2013/750803).
Fluorometric substrate 2′-(4-methylumbelliferyl)-α-D-N-acetylneuraminic acid (MUNANA; Sigma) was used to determine NA activity as described in a prior report. To determine NA activity of pandemic 2009 H1N1 and seasonal 2007 H1N1 viruses, serial 10-fold dilution of viruses (10^6 PFU/mL) was added to the wells of a 96-well plate, mixed with MUNANA solution at final concentration of 300 μM, and then incubated for 1 h at 37°C. Relative NA enzymatic activity was determined as the fluorescent intensity at a 360 nm excitation and a 460 nm emission wavelength (Multidetection Fluorescence-Luminescence Microplate Reader). […] Concentration of each extract or flavonoid showing 50% inhibitory effect (IC50) compared to the control with no inhibitor was determined by computer program (provided by John Spouge, National Institutes of Health).

Another data set is described as follows: Cytotoxic assay (MTT). The settings on record: dog, MDCK cells.
[4] abbreviates: flavonoids, MUNANA substrate, read-out: NA inhibition IC50 values, PR8 H1N1.

6 compounds from paper PMC3705751 (Evidence-based Complementary and Alternative Medicine : eCAM, 2013) can be followed below.

Like-named read-outs stand apart in the source and are kept apart here.

The term IC50 denotes the concentration that inhibits the measured activity by half.

Sequence of NA of PR8 H1N1 influenza A virus (P03468 whole entry): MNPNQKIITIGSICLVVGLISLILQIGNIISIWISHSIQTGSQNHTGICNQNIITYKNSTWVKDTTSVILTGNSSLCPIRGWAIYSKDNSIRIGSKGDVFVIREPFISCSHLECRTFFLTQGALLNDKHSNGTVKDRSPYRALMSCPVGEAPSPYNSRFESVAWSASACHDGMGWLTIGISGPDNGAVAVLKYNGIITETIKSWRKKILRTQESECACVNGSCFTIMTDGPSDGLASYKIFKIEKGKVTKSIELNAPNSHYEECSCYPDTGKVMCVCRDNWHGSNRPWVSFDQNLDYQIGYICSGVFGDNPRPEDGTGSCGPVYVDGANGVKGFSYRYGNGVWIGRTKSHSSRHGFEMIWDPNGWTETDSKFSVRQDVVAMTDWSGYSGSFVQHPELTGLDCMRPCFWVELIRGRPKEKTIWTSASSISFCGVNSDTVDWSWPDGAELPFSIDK

Turning to Chloroform, the “CC50 MDCK cells” value with MDCK cells stood at 829.77 ± 0.009 µg/mL.

For `O=c1cc(-c2ccccc2)oc2cc(O)cc(O)c12` [Chrysin], the 50% inhibitory concentration (IC50) is over 200 µM in data set [1]; over 200 µM in data set [2] (Influenza A virus, MDCK, 72 h); 132 µM in data set [3] (setting [4]). Further, the CC50 in “in vitro” was found to be 266.66 ± 0.077 µM.

Turning to `O=c1cc(-c2ccccc2)oc2cc(O)c(O)c(O)c12` [Baicalein], the half-maximal inhibitory concentration (IC50) in data set [1] worked out at 0.02 µM; in data set [2] (Influenza A virus, MDCK, 72 h), 0.018 µM; in data set [3], 0.181 µM. Moreover, the CC50 at 48 h in “Cytotoxic assay (MTT)” was 0.045 ± 0.088 µM.

As to MeOH, the “CC50 MDCK cells” value with MDCK cells was 923.12 ± 0.017 µg/mL.

For the compound `O=C(O)[C@H]1O[C@@H](Oc2cc3oc(-c4ccccc4)cc(=O)c3c(O)c2O)[C@H](O)[C@@H](O)[C@@H]1O` [Baicalin], the IC50 in data set [1] was over 0.01 µM; in data set [2] (Influenza A virus, MDCK, 72 h), over 0.01 µM; in data set [3] (setting [4]), 2.75 µM. Moreover, the CC50 in the data set “in vitro” came to 0.015 µM.

As to `O=c1cc(-c2ccc(O)cc2)oc2cc(O)cc(O)c12` [Apigenin], the IC50 in data set [1] turned out to be 94.16 ± 0.047 µM; in data set [2] (flavonoids, MDCK cells, 3 days) it was 119.61 ± 0.032 µM; in data set [3] it was 81.3 µM. The compound further displayed a CC50 at 48 h in “Cytotoxic assay (MTT)” of 218.34 ± 0.11 µM.
